How the values were obtained:
Stellaria media = test: Test H weed control, field plots; format: in vivo; conditions: 36 days after treatment; g a.i./ha: tribenuron-methyl 22.5, metsulfuron-methyl 6, ethametsulfuron-methyl 16, imazapyr isopropylamine salt 15, aclonifen 1200
Description: (§1) Field plots (2 m×5 m) were tilled to remove weed cover and then seeded in rows with the following weeds: Capsella bursa pastoris, Atriplex patula, Chenopodium album, Stellaria media, Mecurialis annua, Polygonum persicaria, Amaranthus retroflexus, Polygonum convolvulus, Polygonum aviculare, Viola arvensis, Matricaria inodora, Anagallis arvensis, Sinapis arvensis, Setaria viridis, Solanum nigrum and Echinochloa crusgalli. After 21 days from sowing, at which time the weeds had reached the 2- to 6-leaf stage, herbicide treatments were applied to the plots according to a complete randomized block design, with each herbicide treatment triply replicated. The herbicides were sprayed using standard flat fan nozzles moved perpendicular to the sown lines using water spray volumes of about 296 L/ha.
(§2) Assessments of weed control were made by visual inspection 36 days after herbicide treatment. A visual rating system was used based on a percentage scale from 0 to 100% compared to an adjacent untreated control plot. On this scale 0 represents no visual differences relative to an untreated control and 100 represents complete control of the given weed species.

Chenopodium album = test: Test H weed control, field plots; format: in vivo; conditions: 36 days after treatment; g a.i./ha: tribenuron-methyl 22.5, metsulfuron-methyl 6, ethametsulfuron-methyl 16, imazapyr isopropylamine salt 15, aclonifen 1200
Description: as §1, §2

Echinochloa crus-galli = test: Test H weed control, field plots; format: in vivo; design: concentration or dose not given beside the values; conditions: 36 days after treatment; g a.i./ha: tribenuron-methyl 22.5, metsulfuron-methyl 6, ethametsulfuron-methyl 16, imazapyr isopropylamine salt 15, aclonifen 1200
Description: as §1, §2

Polygonum convolvulus = test: Test H weed control, field plots; format: in vivo; design: concentration or dose not given beside the values; conditions: 36 days after treatment; g a.i./ha: tribenuron-methyl 22.5, metsulfuron-methyl 6, ethametsulfuron-methyl 16, imazapyr isopropylamine salt 15, aclonifen 1200
Description: as §1, §2

Mercurialis annua = test: Test H weed control, field plots; format: in vivo; design: concentration or dose not given beside the values; conditions: 36 days after treatment; g a.i./ha: tribenuron-methyl 22.5, metsulfuron-methyl 6, ethametsulfuron-methyl 16, imazapyr isopropylamine salt 15, aclonifen 1200
Description: as §1, §2

Matricaria inodora = test: Test H weed control, field plots; format: in vivo; design: concentration or dose not given beside the values; conditions: 36 days after treatment; g a.i./ha: tribenuron-methyl 22.5, metsulfuron-methyl 6, ethametsulfuron-methyl 16, imazapyr isopropylamine salt 15, aclonifen 1200
Description: as §1, §2

Amaranthus retroflexus = test: Test H weed control, field plots; format: in vivo; design: concentration or dose not given beside the values; conditions: 36 days after treatment; g a.i./ha: tribenuron-methyl 22.5, metsulfuron-methyl 6, ethametsulfuron-methyl 16, imazapyr isopropylamine salt 15, aclonifen 1200
Description: as §1, §2

Sinapis arvensis = test: Test H weed control, field plots; format: in vivo; design: concentration or dose not given beside the values; conditions: 36 days after treatment; g a.i./ha: tribenuron-methyl 22.5, metsulfuron-methyl 6, ethametsulfuron-methyl 16, imazapyr isopropylamine salt 15, aclonifen 1200
Description: as §1, §2

Atriplex patula = test: Test H weed control, field plots; format: in vivo; design: concentration or dose not given beside the values; conditions: 36 days after treatment; g a.i./ha: tribenuron-methyl 22.5, metsulfuron-methyl 6, ethametsulfuron-methyl 16, imazapyr isopropylamine salt 15, aclonifen 1200
Description: as §1, §2

Polygonum persicaria = test: Test H weed control, field plots; format: in vivo; design: concentration or dose not given beside the values; conditions: 36 days after treatment; g a.i./ha: tribenuron-methyl 22.5, metsulfuron-methyl 6, ethametsulfuron-methyl 16, imazapyr isopropylamine salt 15, aclonifen 1200
Description: as §1, §2

Capsella bursa pastoris = test: Test H weed control, field plots; format: in vivo; design: concentration or dose not given beside the values; conditions: 36 days after treatment; g a.i./ha: tribenuron-methyl 22.5, metsulfuron-methyl 6, ethametsulfuron-methyl 16, imazapyr isopropylamine salt 15, aclonifen 1200
Description: as §1, §2

Solanum nigrum = test: Test H weed control, field plots; format: in vivo; design: concentration or dose not given beside the values; conditions: 36 days after treatment; g a.i./ha: tribenuron-methyl 22.5, metsulfuron-methyl 6, ethametsulfuron-methyl 16, imazapyr isopropylamine salt 15, aclonifen 1200
Description: as §1, §2

Setaria viridis = test: Test H weed control, field plots; format: in vivo; design: concentration or dose not given beside the values; conditions: 36 days after treatment; g a.i./ha: tribenuron-methyl 22.5, metsulfuron-methyl 6, ethametsulfuron-methyl 16, imazapyr isopropylamine salt 15, aclonifen 1200
Description: as §1, §2

Polygonum aviculare = test: Test H weed control, field plots; format: in vivo; design: concentration or dose not given beside the values; conditions: 36 days after treatment; g a.i./ha: tribenuron-methyl 22.5, metsulfuron-methyl 6, ethametsulfuron-methyl 16, imazapyr isopropylamine salt 15, aclonifen 1200
Description: as §1, §2

Anagallis arvensis = test: Test H weed control, field plots; format: in vivo; design: concentration or dose not given beside the values; conditions: 36 days after treatment; g a.i./ha: tribenuron-methyl 22.5, metsulfuron-methyl 6, ethametsulfuron-methyl 16, imazapyr isopropylamine salt 15, aclonifen 1200
Description: as §1, §2

Viola arvensis = test: Test H weed control, field plots; format: in vivo; design: concentration or dose not given beside the values; conditions: 36 days after treatment; g a.i./ha: tribenuron-methyl 22.5, metsulfuron-methyl 6, ethametsulfuron-methyl 16, imazapyr isopropylamine salt 15, aclonifen 1200
Description: as §1, §2

GA-M4M11 × RHA274 = test: Test A field trial, phytotoxicity, variety D; format: in vivo, sunflower; conditions: variety D; 30 g a.i./ha post-emergence
Description: (§3) To generate the hybrids C, D and E, the fourth generation self-pollinated maintainer mutant lines M4M12, M4M11 and M4M7 were chemically sterilized by applying at the bud “star” flower stage a small amount of gibberellic acid solution to sterilize the pollen according to the general method described in Sunflower Science Technology, J. F. Carter ed. (Number 19 in the series “Agronomy”) pp. 339-386. This treatment enables maintainer plants to behave as CMS inbred lines and allows the production of heterozygous resistant hybrids, with the herbicide resistant source coming from the female side. Such crosses allowed evaluating the sexual effect of the mutation source when introduced on the female side of a cross as described in crosses C, D and E versus the male side of a cross as described in crosses F, G and H. Labels I, J and K identify third generation CMS mutant lines crossed with fourth generation maintainer lines to maintain the highly heritable mutant trait in a male sterile homozygous resistant environment. One skilled in sunflower breeding art understands the meaning of such crosses.
(§4) A rating of 0% phytotoxicity means no crop injury.

BC3-M4M7 = test: Test A field trial, phytotoxicity, variety K; format: in vivo, sunflower; conditions: variety K; 30 g a.i./ha post-emergence
Description: as §3, §4

BC3-M4M12 = test: Test A field trial, phytotoxicity, variety I; format: in vivo, sunflower; conditions: variety I; 30 g a.i./ha post-emergence
Description: as §3, §4

[1] = system: Homozygous resistant inbred lines, BC3-M4M12 (I), BC3-M4M11 (J) and BC3-M4M7 (K); test: Test A summary, homozygous resistant inbred lines; conditions: Test A application rates
Protocol: In a small field trial, the sunflower varieties described in Table 4 were sprayed post-emergence with a variety of sulfonylurea herbicide treatments.
Broadcast post-emergence applications of formulated sulfonylurea herbicides were performed at the 6-leaf development stage using four randomly distributed replications. Application rates were chosen to match the usual use rates of these herbicides in the crops they are registered in Europe. All herbicides except for metsulfuron-methyl were sprayed in combination with Citowet® non-ionic ethoxylated alcohol at 0.25% volume of formulated product per volume of water applied per hectare.
The evaluation of the maximum (i.e. peak) injury to sunflower varieties by sulfonylurea herbicides was measured by visual ratings, which are listed in Table 5. A rating of 0% phytotoxicity means no crop injury. […] A rating of 100% means the complete destruction of all plants.

GA-M4M7 × RHA274 = test: Test A field trial, phytotoxicity, variety E; format: in vivo, sunflower; conditions: variety E; 30 g a.i./ha post-emergence
Description: as §3, §4

GA-M4M12 × RHA274 = test: Test A field trial, phytotoxicity, variety C; format: in vivo, sunflower; conditions: variety C; 30 g a.i./ha post-emergence
Description: as §3, §4

BC3-M4M11 = test: Test A field trial, phytotoxicity, variety J; format: in vivo, sunflower; conditions: variety J; 30 g a.i./ha post-emergence
Description: as §3, §4

[2] = system: Hybrid control: H89A × RHA274; format: in vivo, sunflower; conditions: variety A; 30 g a.i./ha post-emergence
Description: as §3, §4

H89A × M4M12 = format: in vivo, sunflower; conditions: variety F; 30 g a.i./ha post-emergence
Description: as §3, §4

H89A × M4M11 = format: in vivo, sunflower; conditions: variety G; 30 g a.i./ha post-emergence
Description: as §3, §4

[3] = system: Inbred line control: H89A; format: in vivo, sunflower; conditions: variety B; 30 g a.i./ha post-emergence
Description: as §3, §4

H89A × M4M7 = format: in vivo, sunflower; conditions: variety H; 30 g a.i./ha post-emergence
Description: as §3, §4

In the case of `Nc1c([N+](=O)[O-])ccc(Oc2ccccc2)c1Cl` [Aclonifen, aclonifen], the “weed control, visual rating: Stellaria media” value (Stellaria media) was 100%, the “weed control, visual rating: Chenopodium album” value (Chenopodium album) was 100% and the “weed control, visual rating: Echinochloa crus-galli” value (Echinochloa crus-galli) was 0%. The “weed control, visual rating: Polygonum convolvulus” value (Polygonum convolvulus) was 23%, the “weed control, visual rating: Mercurialis annua” value (Mercurialis annua) was 50% and the “weed control, visual rating: Matricaria inodora” value (Matricaria inodora) was 0%. The “weed control, visual rating: Amaranthus retroflexus” value (Amaranthus retroflexus) was 40%, the “weed control, visual rating: Sinapis arvensis” value (Sinapis arvensis) was 100% and the “weed control, visual rating: Atriplex patula” value (Atriplex patula) was 0%. For the same molecule, the “weed control, visual rating: Polygonum persicaria” value (Polygonum persicaria) was 70%, the “weed control, visual rating: Capsella bursa pastoris” value (Capsella bursa pastoris) was 100% and the “weed control, visual rating: Solanum nigrum” value (Solanum nigrum) was 20%. The “weed control, visual rating: Setaria viridis” value (Setaria viridis) was 40%, the “weed control, visual rating: Polygonum aviculare” value (Polygonum aviculare) was 30% and the “weed control, visual rating: Anagallis arvensis” value (Anagallis arvensis) was 100%. The “weed control, visual rating: Viola arvensis” value (Viola arvensis) was 57%.
For `COC(=O)c1ccccc1S(=O)(=O)NC(=O)Nc1nc(OC(F)F)cc(OC(F)F)n1` [Primisulfuron-methyl, primisulfuron-methyl], the “Maximum Phytotoxicity” value (GA-M4M11 × RHA274) was 75%, the “Maximum Phytotoxicity” value (BC3-M4M7) was 51% and the “Maximum Phytotoxicity” value (BC3-M4M12) was 35%. For the same molecule, the “tolerance of homozygous resistant lines compared with heterozygous hybrids” value [1] was “the homozygous resistant lines were more tolerant”, the “tolerance of homozygous resistant inbred lines I, J, K” value ([1]; triflusulfuron-methyl at 20 g a.i./ha) was “less susceptible than the standards” and the “Maximum Phytotoxicity” value (GA-M4M7 × RHA274) was 74%. The “Maximum Phytotoxicity” value (GA-M4M12 × RHA274) was 71%, the “Maximum Phytotoxicity” value (BC3-M4M11) was 55% and the “Maximum Phytotoxicity” value [2] was 100%. The “Maximum Phytotoxicity” value (H89A × M4M12) was 66%, the “Maximum Phytotoxicity” value (H89A × M4M11) was 73% and the “Maximum Phytotoxicity” value [3] was 100%. The “Maximum Phytotoxicity” value (H89A × M4M7) was 69%.

From US6822146B2, “Sulfonylurea-tolerant sunflower line M7” (priority 2000, dated 2004)
